Data on seven compounds can be found in US5079341.

Molecules are shown by their SMILES. Like-named read-outs stand apart in the source and are kept apart here.

For this data set the following is noted: amide bond, 33-membered ring, BOP/DMAP.

Consider `CCCC[C@@H]1NC(=O)[C@@H]2C[C@@H](O)CN2C(=O)[C@H](C(C)C)N(C)C(=O)[C@H](CC(C)C)N(C)C(=O)[C@H](CC(C)C)N(C)C(=O)[C@@H](C)NC(=O)[C@H](C)NC(=O)[C@H](CC(C)C)N(C)C(=O)[C@H](C(C)C)NC(=O)[C@H](CC(C)C)N(C)C(=O)CN(C)C1=O`, for which the ring closure, isolated yield (from H-Hyp-Nle-Sar-MeLeu-Val-MeLeu-Ala-dAla-MeLeu-MeLeu-MeVal-OH, CH2Cl2, 0.4 mM) amounted to 26%.

`CCC[C@@H]1NC(=O)[C@H](CO)N(C)C(=O)[C@H](C(C)C)N(C)C(=O)[C@H](CC(C)C)N(C)C(=O)[C@H](CC(C)C)N(C)C(=O)[C@@H](C)NC(=O)[C@H](C)NC(=O)[C@H](CC(C)C)N(C)C(=O)[C@H](C(C)C)NC(=O)[C@H](CC(C)C)N(C)C(=O)CN(C)C1=O` yielded a ring closure, isolated yield (from H-MeSer-Nva-Sar-MeLeu-Val-MeLeu-Ala-dAla-MeLeu-MeLeu-MeVal-OH, CH2Cl2/THF 1:1, 3.9 mM) of 20%.

Take `CC[C@@H]1NC(=O)[C@@H]2C[C@@H](O)CN2C(=O)[C@H](C(C)C)N(C)C(=O)[C@H](CC(C)C)N(C)C(=O)[C@H](CC(C)C)N(C)C(=O)[C@@H](C)NC(=O)[C@H](C)NC(=O)[C@H](CC(C)C)N(C)C(=O)[C@H](C(C)C)NC(=O)[C@H](CC(C)C)N(C)C(=O)CN(C)C1=O`: the ring closure, isolated yield (from H-Hyp-Abu-Sar-MeLeu-Val-MeLeu-Ala-dAla-MeLeu-MeLeu-MeVal-OH, CH2Cl2, 0.35 mM) was found to be 30%.

For the setting “from H-MeSer-Abu-Sar-MeLeu-Val-MeLeu-Ala-dAla-MeLeu-MeLeu-MeVal-OH, CH2Cl2, 0.176 mM”, `CC[C@@H]1NC(=O)[C@H](CO)N(C)C(=O)[C@H](C(C)C)N(C)C(=O)[C@H](CC(C)C)N(C)C(=O)[C@H](CC(C)C)N(C)C(=O)[C@@H](C)NC(=O)[C@H](C)NC(=O)[C@H](CC(C)C)N(C)C(=O)[C@H](C(C)C)NC(=O)[C@H](CC(C)C)N(C)C(=O)CN(C)C1=O` displayed a ring closure, isolated yield of 15%.

`CCCC[C@@H]1NC(=O)[C@H](CO)N(C)C(=O)[C@H](C(C)C)N(C)C(=O)[C@H](CC(C)C)N(C)C(=O)[C@H](CC(C)C)N(C)C(=O)[C@@H](C)NC(=O)[C@H](C)NC(=O)[C@H](CC(C)C)N(C)C(=O)[C@H](C(C)C)NC(=O)[C@H](CC(C)C)N(C)C(=O)CN(C)C1=O` yielded a ring closure, isolated yield (from H-MeSer-Nle-Sar-MeLeu-Val-MeLeu-Ala-dAla-MeLeu-MeLeu-MeVal-OH, THF/CH2Cl2 1:1, 0.433 mM) of 16%.

In the case of `CC[C@@H]1NC(=O)[C@H](CCNC(=O)OCC2c3ccccc3-c3ccccc32)NC(=O)[C@H](C(C)C)N(C)C(=O)[C@H](CC(C)C)N(C)C(=O)[C@H](CC(C)C)N(C)C(=O)[C@@H](C)NC(=O)[C@H](C)NC(=O)[C@H](CC(C)C)N(C)C(=O)[C@H](C(C)C)NC(=O)[C@H](CC(C)C)N(C)C(=O)CN(C)C1=O`, for the setting “from H-Dab(Fmoc)-Abu-Sar-MeLeu-Val-MeLeu-Ala-dAla-MeLeu-MeLeu-MeVal-OH, CH2Cl2, 0.165 mM”, the ring closure, isolated yield was 37%.

`CCCC[C@@H]1NC(=O)[C@H]([C@@H](C)O)N(C)C(=O)[C@H](C(C)C)N(C)C(=O)[C@H](CC(C)C)N(C)C(=O)[C@H](CC(C)C)N(C)C(=O)[C@@H](C)NC(=O)[C@H](C)NC(=O)[C@H](CC(C)C)N(C)C(=O)[C@H](C(C)C)NC(=O)[C@H](CC(C)C)N(C)C(=O)CN(C)C1=O` registered a ring closure, isolated yield (from H-MeThr-Nle-Sar-MeLeu-Val-MeLeu-Ala-dAla-MeLeu-MeLeu-MeVal-OH, CH2Cl2, 0.325 mM) of 14%.
